# Source: the supplement of paper PMC3974653
# Counter-ions that a name gives are not always drawn.
# Tested on: MTT (mouse pheochromocytoma)
# Test: IC50 of cell viability (ATP content)
# Conditions: (24 or 48 h)
# Outline: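 Library compounds in DMSO (23 nl by pintool, 8 concentrations, final 0.5 nM to 46 µM) were applied for 24 or 48 hrs to MTT mouse pheochromocytoma cells that had been cultured overnight at 37°C, 5% CO2 in white 1536-well plates. Cell viability was measured by CellTiter-Glo ATP luminescence, read after 15 minutes, with positive-control wells set at 100% and DMSO wells at 0%. A four-parameter logistic fit of the normalised signals yielded the IC50.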
row,Structure (SMILES),IC50 of cell viability [µM]
1,CCN(CC)CCSC(=O)C(c1ccccc1)c1ccccc1 [Thiphenamil hydrochloride],> 46
2,CC[C@]12CC(=C)[C@H]3[C@@H](CCC/4=C/C(=O)CC[C@H]34)[C@@H]1CC[C@@]2(O)C#C [ETONOGESTREL],> 46
3,N[C@@H](C(=O)N[C@H]1[C@H]2SC\C(=C(/N2C1=O)C(O)=O)Cl)C3=CC=CC=C3 [Cefaclorum],> 46
4,CC(C)(C)c1ccc(O)cc1 [4-T-BUTYLPHENOL FORMALDEHYDE RESIN],> 46
5,CC(C)(C)NC(=O)[C@@H]1CN(Cc2cccnc2)CCN1C[C@@H](O)C[C@@H](Cc1ccccc1)C(=O)N[C@H]1c2ccccc2C[C@H]1O [INDINAVIR SULFATE],> 46
6,O=C1C(CC[S+]([O-])c2ccccc2)C(=O)N(c2ccccc2)N1c1ccccc1 (stereo not drawn) [Sulfinpyrazone],> 46
7,Cc1ccccc1 [Toluene],> 46
8,Cl.COC1=C(C=CC=C1)N2CCN(CCCNC/3=C/C(=O)N(C)C(=O)N3C)CC2 [Urapidil hydrochloride],> 46
9,CC(C)(C)OC(=O)c1ncn2c1[C@@H]1CCCN1C(=O)c1c(Br)cccc1-2 [Bretazenil],> 46
10,O=C1[O][Mg]2([O]C(=O)c3ccccc3[O]2)[O]c2ccccc21 [MAGNESIUM SALICYLATE],> 46
11,C#CC1(OC(C)=O)CCC2C3CCC4=CC(OC(C)=O)CCC4C3CCC21C (stereo not drawn) [Ethynodiol Diacetate],> 46
12,O[C@@H]([C@H](O)[C@H](O)CBr)[C@H](O)CBr [MITOBRONITOL],> 46
13,CCCOC(=O)Cc1ccc(OCC(=O)N(CC)CC)c(OC)c1 [Propanidid],> 46
14,N[S+]([O-])(=O)C1=C(Cl)C=C2\N=C/N[S+]([O-])(=O)C2=C1 [Chlorothiazide],> 46
15,Oc1ccc(C2CNCCc3c2cc(O)c(O)c3Cl)cc1 (stereo not drawn) [FENOLDOPAM],> 46
16,CO[C@H]1[C@@H](O[C@@H]2O[C@@H](C)[C@@H](O[C@H]3C[C@](C)(O)[C@H](O)[C@H](C)O3)[C@@H](N(C)C)[C@H]2O)[C@H](CC=O)C[C@@H](C)[C@@H](O[C@H]2CC[C@H](N(C)C)[C@H](C)O2)/C=C\C=C/C[C@@H](C)OC(=O)C[C@H]1O [Spiramycin],> 46
17,CCCCNc1ccc(C(=O)OCC[NH+](CC)CC)cc1 [Depolipon],> 46
18,CC(CCc1ccc(O)cc1)NCC(O)c1ccc(O)cc1 (stereo not drawn) [RACTOPAMINE HYDROCHLORIDE],> 46
19,C[S+](=O)([O-])OCCC[NH2+]CCCO[S+](C)(=O)[O-] [Improsulfan tosylate],> 46
20,CCN(CC)CC1CCCCN1CC(=O)N1c2ccccc2C(=O)Nc2cccnc21 (stereo not drawn) [AF-DX 116],> 46
21,COC(=O)Nc1nc2ccc([S+]([O-])c3ccccc3)cc2[nH]1 (stereo not drawn) [Oxfendazole],> 46
22,CC/1=C(CCN2CCC(CC2)C(=O)C3=CC=C(F)C=C3)/C(=O)N4\C=C/C=C\C4=N1 [PIRENPERONE],> 46
23,C=CCN1C[C@H](C)N([C@H](c2ccc(C(=O)N(CC)CC)cc2)c2cccc(OC)c2)C[C@H]1C [SNC 80],> 46

row,Structure (SMILES),IC50 of cell viability [µM]
1,O[C@H]1\C=C/C2[C@H]3CC4=CC=C(O)C5=C4[C@@]2(CCN3)[C@H]1O5 (stereo partly drawn) [Normorphine],> 46
2,CC(C)CC(NC(=O)C(COC(C)(C)C)NC(=O)C(Cc1ccc(O)cc1)NC(=O)C(CO)NC(=O)C(Cc1c[nH]c2ccccc12)NC(=O)C(Cc1cnc[nH]1)NC(=O)C1CCC(=O)N1)C(=O)NC(CCCN=C(N)N)C(=O)N1CCCC1C(=O)NNC(N)=O (stereo not drawn) [GOSERELIN ACETATE],> 46
3,O=S(=O)([O-])O.[Na+] [Sodium hydrogen sulfate],> 46
4,CN1CCN(CC1)C/2=N/C3=CC=CC=C3NC4=C2C=C(C)S4 [olanzapine],> 46
5,C/C=C\C[C@H](C)[C@H](O)[C@H]1C(=O)N[C@@H](CC)C(=O)N(C)CC(=O)N(C)[C@@H](CC(C)C)C(=O)N[C@@H](C(C)C)C(=O)N(C)[C@@H](CC(C)C)C(=O)N[C@@H](C)C(=O)N[C@@H](C)C(=O)N(C)[C@@H](CC(C)C)C(=O)N(C)[C@@H](CC(C)C)C(=O)N(C)[C@@H](C(C)C)C(=O)N1C [Cyclosporin A],> 46
6,O=C(O)c1ccccc1C(=O)Nc1ccc([S+](=O)([O-])Nc2nccs2)cc1 [PHTHALYLSULFATHIAZOLE],> 46
7,CCCCCC[C@@H](O)C/C=C\CCCCCCCC(=O)O [POTASSIUM RICINOLEATE],> 46
8,CC(C)(O/N=C(\C(=O)N[C@@H]1C(=O)N2C(C(=O)[O-])=C(C[n+]3ccccc3)CS[C@@H]12)c1csc(N)n1)C(=O)O.O.O.O.O.O [Ceftazidime pentahydrate],> 46
9,C(=C\c1ccncc1)/c1ccccc1 [STYRYLPYRIDINIUM CHLORIDE],> 46
10,C=CCSCC1Nc2cc(Cl)c([S+](N)(=O)[O-])cc2[S+](=O)([O-])N1 (stereo not drawn) [ALTHIAZIDE],> 46
11,CN1C(=O)OC(C)(C)C1=O [Trimethadione],> 46
12,CCCCC1C(=O)NC(=O)N(C2CCCCC2)C1=O (stereo not drawn) [BUCOLOME],> 46
13,CC(C)(C)NC[C@H](O)COc1cccc2c1C[C@@H](O)[C@H](O)C2 [Nadolol],> 46
14,C=CCN1CCc2nc(N)sc2CC1 [B-HT 920],> 46
15,C[C@H]1[C@H]\2[C@H](O)[C@H]3[C@H](N(C)C)\C(=C(\C(N)=O)C(=O)[C@]3(O)\C(=C2C(=O)C4=C1C=CC=C4O)O)O [Doxycycline hydrochloride],> 46
16,C[C@@H]1C[C@H]2C3C[C@H](F)\C4=C\C(=O)\C=C/C4(C)C3[C@@H](O)CC2(C)[C@@]1(O)C(=O)COC(C)=O (stereo partly drawn) [Paramethasone acetate],> 46
17,CCCOC(=O)c1cc(O)c(O)c(O)c1 [Propyl gallate],> 46
18,Oc1cc2cc(CCN3CCN(c4nsc5ccccc45)CC3)c(Cl)cc2[nH]1 [Zaprasidone],> 46
19,CCC(C)(C)OC(=O)N[C@@H](Cc1c[nH]c2ccccc12)C(=O)N[C@@H](CCSC)C(=O)N[C@@H](CC(=O)O)C(=O)N[C@@H](Cc1ccccc1)C(N)=O [AMOGASTRIN],> 46
20,NC[C@@H]1O[C@@H](O[C@H]2[C@@H](O)[C@H](O[C@@H]3[C@@H](O)[C@H](N)C[C@H](N)[C@H]3O[C@H]3O[C@H](CN)[C@@H](O)[C@H](O)[C@H]3N)O[C@@H]2CO)[C@H](N)[C@@H](O)[C@@H]1O [Neomycin Trisulfate Hydrate],> 46
21,CCC(C)C1NC(=O)C(Cc2ccc(O)cc2)NC(=O)C(N)CSSCC(C(=O)N2CCCC2C(=O)NC(CC(C)C)C(=O)NCC(N)=O)NC(=O)C(CC(N)=O)NC(=O)C(CCC(N)=O)NC1=O (stereo not drawn) [OXYTOCIN],> 46
22,NNc1nnc(Cc2ccncc2)c2ccccc12 [Picodralazine],> 46
23,CC(C)C(=O)c1c(C(C)C)nn2ccccc12 [Ibudilast],> 46

row,Structure (SMILES),IC50 of cell viability [µM]
1,O=C1OC2C(O)C(O)OC2C1O (stereo not drawn) [Mannuronic acid lactone],> 46
2,Oc1cc(O)c2c(c1)OC(c1ccc(O)c(O)c1)C(O)C2 (stereo not drawn) [EPICATECHIN],> 46
3,NC(=O)c1cn(Cc2c(F)cccc2F)nn1 [RUFINAMIDE],> 46
4,Cc1onc(-c2ccccc2)c1-c1ccc([S+](N)(=O)[O-])cc1 [VALDECOXIB],> 46
5,COC(=O)[C@@H]1[C@H]2C[C@H]3c4[nH]c5cc(OC)ccc5c4CCN3C[C@@H]2C[C@@H](OC(=O)/C=C\c2cc(OC)c(OC)c(OC)c2)[C@@H]1OC [Rescinnamin],> 46
6,NC(=O)c1ncn([C@@H]2O[C@H](CO)[C@@H](O)[C@H]2O)c1O [Mizoribine],> 46
7,N=C(N)NC(=O)c1nc(Cl)c(N)nc1N [AMILORIDE],> 46
8,O=C1c2cccc(O)c2C(=O)c2c(O)cccc21 [Danthron],> 46
9,CCN(CC)CCNC(=O)c1ccc(N)cc1 [PROCAINAMIDE],> 46
10,CC1=CC(=C(O)C(=C1C\C2=N\CCN2)C)C(C)(C)C [OXYMETAZOLINE],> 46
11,Cc1cc(-c2ccccc2)nnc1NCCN1CCOCC1.Cl.Cl [MINAPRINE HYDROCHLORIDE],> 46
12,CO/N=C(\C(=O)N[C@@H]1C(=O)N2C(C(=O)[O-])=C(C[n+]3cccc4c3CCC4)CS[C@H]12)c1csc(N)n1 [CEFPIROME SULPHATE],> 46
13,CCOc1cc(OCC)c(C(=O)CCC(=O)O)cc1OCC [TREPIBUTONE],> 46
14,C[N+](C)(C)CCOC(N)=O [CARBAMYLCHOLINE],> 46
15,COC(=O)\C1=C\CCN(C)C1 [ARECOLINE],> 46
16,"CC(O)COc1ccccc1 (stereo not drawn) [2-Propanol, 1-phenoxy-]",> 46
17,C=CC1C[N@]2CCC1CC2C(OC(=O)OCC)c1ccnc2ccc(OC)cc12 (stereo partly drawn) [QUININE ETHYL CARBONATE],> 46
18,"Nc1ncnc(Nc2ccc(Cl)cc2)n1 [2-AMINO-4-(4-CHLOROANILINO)-1,3,5-TRIAZINE]",> 46
19,CC(O)CN(CCN(CC(C)O)CC(C)O)CC(C)O (stereo not drawn) [EDETOLUM],> 46
20,CCNC[C@H](O)c1cccc(O)c1 [Etilefrine hydrochloride],> 46
21,[H][C@](C)(O)[C@@]1([H])C(=O)[N@]2C(C([O-])=O)=C(SC3CN4C=NC=[N+]4C3)[C@@]([H])(C)C12[H] (stereo partly drawn) [Biapenem],> 46
22,CCCCC[C@H](O)/C=C\[C@H]1[C@H](C/C=C\CCCC(=O)O)[C@@H](O)C[C@H]1O.COC(N)(CO)CO [Dinoprost trometamol],> 46
